Assay: Parallel artificial membrane permeability assay (PAMPA) for blood-brain barrier permeation, PSR4p analyzer
Settings: for Pe (linear velocity of permeation): pH 7.4 buffer, 18 h, ambient temperature, literature compounds, averaged; for Papp at 18 h, 25 µg/mL: pig, PAMPA, pH 7.4
Source text: In actual practice, a solution of known concentration of a compound or mixture of compounds in a buffer solution is separated from a buffer solution containing 0% concentration of said compound or mixture of compounds by a porous filter membrane impregnated with a mixture of brain polar lipid extract and dodecane in such a way that the surface of each buffer solution is in contact with opposite sides of said impregnated membrane. After a measured period of time, the concentration of said compound or mixture of compounds is determined for each buffer solution and the rate of diffusion is calculated.
In one embodiment of the invention, a 96-well plate filled with solutions of a known concentration of test sample in a buffer solution (donor) may be covered with a 96-well filter plate wherein the porous filter membrane is impregnated with a mixture of brain polar lipid extract and dodecane and the wells are filled with a buffer solution containing 0% concentration of test sample (acceptor) such that the surface of each buffer solution is in contact with opposite sides of said impregnated filter membrane; after a measured period of time, the donor plate and acceptor plate are separated, the concentration of sample in each buffer solution is determined and the rate of permeation is calculated.
In another embodiment of the invention, a high through-put permeability instrument such as the PSR4p instrument manufactured by pION Inc., Woburn, Mass. may be utilized. In this embodiment, a parallel artificial membrane assay (PAMPA) technique is employed using as artificial membrane a porous filter membrane impregnated with a mixture of brain polar lipid extract and dodecane.
A 100 μL volume of each stock solution is placed into one well of a 96-well plate, and the well plate is placed in a PSR4p permeability analyzer manufactured by pION, Inc., Woburn, Mass. A 10 μL volume of stock solution is robotically added to a deep 96-well plate containing 2.0 mL of pH 7.4 buffer solution. The resultant mixture is mechanically stirred to form the donor solution. A 200 μL volume of each donor solution is placed robotically into 3 wells of a 96-well plate to afford the donor plate. A vial containing 20 mg of porcine polar brain lipid extract manufactured by Avanti Polar Lipids, Inc., Alabaster, Ala., dissolved in 1 mL of dodecane is placed in the reservoir of the PSR4p instrument. A 4 μL volume of this brain lipid solution is placed on the filter surface of each well of a 96-well microtiter filter well plate manufactured by Millipore Corp., Bedford, Mass., wherein the filter is a porous (0.45 μm) polyvinylidenefluoride material approximately 104 μm in thickness. The microtiter plate is then manually placed on an orbital shaker for 1 minute to yield a 96-well microtiter plate having a filter membrane permeated with a 2.0% wt/vol solution of porcine polar brain lipid extract in dodecane. A 200 μL volume of pH 7.4 buffer is robotically inserted into the wells of the thus-prepared microtiter 96-well filter plate to give a receptor plate, this receptor plate is placed on the donor plate to form a sandwich and allowed to stand at ambient temperature for 18 h.
A plate washer manufactured by Tecan, Hombrechin-tikon, Switzerland is then used to prepare a UV transparent 96-well plate (UV plate). The receptor plate is removed from the sandwich, a 150 μL volume of the receptor solution is robotically placed in the UV plate, and the UV absorption at 190–500 nm of each receptor well is recorded. The UV plate is then replaced in the plate washer, washed again and a 150 μL volume of the donor solution is robotically placed in the UV plate and the UV absorption at 190–500 nm of each donor well is recorded.

Compound	Pe (linear velocity of permeation)	Papp at 18 h, 25 µg/mL [×10⁻⁶ cm/s]
C[C@]12CCC(=O)C=C1CC[C@@H]1[C@@H]2[C@@H](O)C[C@]2(C=O)[C@@H](C(=O)CO)CC[C@@H]12 [Aldosterone]	1.19 10^−6 cm/s	< 2
Cc1nnc2n1-c1ccc(Cl)cc1C(c1ccccc1)=NC2 [Alprazolam]	5.44 10^−6 cm/s	> 4
COc1ccc(CCN2CCC(Nc3nc4ccccc4n3Cc3ccc(F)cc3)CC2)cc1 [Astemizole]	10.66 10^−6 cm/s	> 4
CN(C)CCCN1c2ccccc2Sc2ccc(Cl)cc21 [Chlorpromazine]	6.36 10^−6 cm/s	> 4
CN1C(=O)CC(=O)N(c2ccccc2)c2cc(Cl)ccc21 [Clobazam]	16.85 10^−6 cm/s	> 4
NCCc1ccc(O)c(O)c1 [Dopamine]	0.16 10^−6 cm/s	< 2
Cc1cc(NC(=O)C2=C(O)c3ccccc3S(=O)(=O)N2C)no1 [Isoxicam]	0.25 10^−6 cm/s	< 2
CN(C)C(=O)C(CCN1CCC(O)(c2ccc(Cl)cc2)CC1)(c1ccccc1)c1ccccc1 [Loperamide]	0.00 10^−6 cm/s	< 2
CN1C(C(=O)Nc2ccccn2)=C(O)c2ccccc2S1(=O)=O [Piroxicam]	2.53 10^−6 cm/s	< 2
CN(C)CCCN1c2ccccc2Sc2ccccc21 [Promazine]	8.84 10^−6 cm/s	> 4
CN1C(C(=O)Nc2ccccn2)=C(O)c2sccc2S1(=O)=O [Tenoxicam]	0.14 10^−6 cm/s	< 2
CC(C)(C)c1ccc(C(O)CCCN2CCC(C(O)(c3ccccc3)c3ccccc3)CC2)cc1 (stereo not shown) [Terfenadine]	0.00 10^−6 cm/s	< 2
CCCC(C)C1(CC)C(=O)NC(=S)NC1=O (stereo not shown) [Thiopental]		> 4

— patent publication US7060428B2, “Methods and compositions useful for the prediction of blood-brain barrier permeation” (Wyeth, priority 2001, dated 2006)
